The format of data set [1] is physicochemical. The protocol:
Clear solutions without precipitates are considered soluble. Unless indicated otherwise herein, the term “solubility” refers to “equilibrium solubility.”
Upon heating to 80° C. for 15 minutes, rebaudioside D has an equilibrium solubility of 0.08% for at least four days at room temperature.

The conditions of data set [2]: sensory evaluation; cited from earlier work.

Regarding `C=C1C[C@@]23CC[C@H]4[C@@](C)(CCC[C@@]4(C)C(=O)O[C@@H]4O[C@H](CO)[C@@H](O)[C@H](O)[C@H]4O[C@@H]4O[C@H](CO)[C@@H](O)[C@H](O)[C@H]4O)[C@@H]2CC[C@]1(O[C@@H]1O[C@H](CO)[C@@H](O)[C@H](O[C@@H]2O[C@H](CO)[C@@H](O)[C@H](O)[C@H]2O)[C@H]1O[C@@H]1O[C@H](CO)[C@@H](O)[C@H](O)[C@H]1O)C3` [Rebaudioside D], in data set [1], the equilibrium solubility is 0.08% and the instantaneous solubility entry is recorded as “less than 0.08%”. The “sweetness relative to sucrose” value in data set [2] is 200-220 times sweeter than sucrose.

Turning to `C=C1C[C@@]23CC[C@H]4[C@@](C)(CCC[C@@]4(C)C(=O)O[C@@H]4O[C@H](CO)[C@@H](O)[C@H](O[C@@H]5O[C@H](CO)[C@@H](O)[C@H](O)[C@H]5O)[C@H]4O[C@@H]4O[C@H](CO)[C@@H](O)[C@H](O)[C@H]4O)[C@@H]2CC[C@]1(O[C@@H]1O[C@H](CO)[C@@H](O)[C@H](O[C@@H]2O[C@H](CO)[C@@H](O)[C@H](O)[C@H]2O)[C@H]1O[C@@H]1O[C@H](CO)[C@@H](O)[C@H](O)[C@H]1O)C3` [Rebaudioside M], in data set [1], the equilibrium solubility result was “about 0.2%” and the instantaneous solubility result was “about 0.13%”.

These data come from patent publication US12662505B2, “Steviol glycoside solubility enhancers” (CARGILL, INCORPORATED, priority 2019, dated 2026).
